Reference: patent US20180074053A1 (priority 2016, published 2018)
Like-named read-outs stand apart in the source and are kept apart here. Non-standard residues stand in square brackets, D forms with d. No end group written: not given here.

Columns and labels:
GPCR109a = GPCR109a (Homo sapiens, UniProt Q8TDS4); experiment: cell-based
Method: (§1) The platform uses ChemiScreen GPCR stable cell lines that are used for real-time calcium flux assays to rapidly, screen a spectrum of GPCRs. […] Percentage activation values were determined upon initial addition of compound(s). Percentage activation and inhibition values were determined for each GPCR relative to the reference compounds.
(§2) Assays were performed according to the manufacturer's instructions. […] The assay plate was read by the FLIPR TETRA® (Molecular Devices, Sunnyvale, Calif.). All assay plate data were subjected to appropriate baseline corrections and the maximum fluorescence values were processed to calculate percentage activation (relative to ECmax reference agonist and vehicle control values).

GPCR40 = GPCR40 (Homo sapiens, UniProt O14842); experiment: cell-based
Chain of GPCR40 (O14842 whole entry): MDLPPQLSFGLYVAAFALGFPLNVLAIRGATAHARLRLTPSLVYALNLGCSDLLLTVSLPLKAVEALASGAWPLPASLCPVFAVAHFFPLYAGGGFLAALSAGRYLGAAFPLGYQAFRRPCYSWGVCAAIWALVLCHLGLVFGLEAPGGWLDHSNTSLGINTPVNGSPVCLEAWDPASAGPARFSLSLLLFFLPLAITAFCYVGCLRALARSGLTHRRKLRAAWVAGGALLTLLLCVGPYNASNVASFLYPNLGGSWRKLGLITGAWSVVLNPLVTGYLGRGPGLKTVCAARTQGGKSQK
Method: as §1, §2

MC2 [1] = biological target: MC2 (Homo sapiens, UniProt Q01718); experiment: cell-based
Chain of MC2 (Homo sapiens, UniProt Q01718) (Q01718 whole entry): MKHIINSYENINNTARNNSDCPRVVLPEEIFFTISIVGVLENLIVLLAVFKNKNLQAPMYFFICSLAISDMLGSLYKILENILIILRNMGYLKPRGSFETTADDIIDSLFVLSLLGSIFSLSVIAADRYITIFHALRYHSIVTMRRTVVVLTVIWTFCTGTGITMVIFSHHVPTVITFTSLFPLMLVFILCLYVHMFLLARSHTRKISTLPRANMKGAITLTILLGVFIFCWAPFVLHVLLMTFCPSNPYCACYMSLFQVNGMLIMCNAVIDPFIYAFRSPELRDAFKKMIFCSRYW
Chain of MC2 (Homo sapiens, UniProt Q01718) (Q8TCY5 whole entry partner): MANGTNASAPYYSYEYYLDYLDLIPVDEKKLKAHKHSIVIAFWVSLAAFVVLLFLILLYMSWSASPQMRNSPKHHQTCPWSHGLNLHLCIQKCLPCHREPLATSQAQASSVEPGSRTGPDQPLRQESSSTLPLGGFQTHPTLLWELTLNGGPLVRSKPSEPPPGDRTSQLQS
Method: as §1, §2

MCHR1 = MCHR1 (Homo sapiens, UniProt Q99705); experiment: cell-based
Chain of MCHR1 (Q99705 whole entry): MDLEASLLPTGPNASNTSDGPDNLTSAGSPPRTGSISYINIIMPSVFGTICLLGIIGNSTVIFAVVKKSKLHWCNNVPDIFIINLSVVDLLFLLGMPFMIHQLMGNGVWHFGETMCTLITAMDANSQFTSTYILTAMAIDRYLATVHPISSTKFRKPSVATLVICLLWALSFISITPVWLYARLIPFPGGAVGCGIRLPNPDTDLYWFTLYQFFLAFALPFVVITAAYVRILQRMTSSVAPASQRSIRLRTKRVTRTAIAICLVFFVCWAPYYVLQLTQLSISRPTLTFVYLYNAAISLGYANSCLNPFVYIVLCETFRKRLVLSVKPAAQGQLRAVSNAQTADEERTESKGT
Method: as §1, §2

MCHR2 [2] = biological target: MCHR2 (Homo sapiens, UniProt Q969V1); experiment: cell-based
Chain of MCHR2 (Homo sapiens, UniProt Q969V1) (Q969V1 whole entry): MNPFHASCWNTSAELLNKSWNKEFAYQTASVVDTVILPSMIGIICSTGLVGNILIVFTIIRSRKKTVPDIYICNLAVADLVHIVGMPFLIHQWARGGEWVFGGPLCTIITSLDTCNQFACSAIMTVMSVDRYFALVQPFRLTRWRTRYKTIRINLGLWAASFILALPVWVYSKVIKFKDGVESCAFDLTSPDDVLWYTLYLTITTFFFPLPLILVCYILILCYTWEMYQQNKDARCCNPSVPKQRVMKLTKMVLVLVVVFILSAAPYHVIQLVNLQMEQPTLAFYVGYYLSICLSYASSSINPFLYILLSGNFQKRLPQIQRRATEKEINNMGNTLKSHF
Method: as §1, §2

MRGD = MRGD (Homo sapiens, UniProt Q8TDS7); experiment: cell-based
Chain of MRGD (Q8TDS7 whole entry): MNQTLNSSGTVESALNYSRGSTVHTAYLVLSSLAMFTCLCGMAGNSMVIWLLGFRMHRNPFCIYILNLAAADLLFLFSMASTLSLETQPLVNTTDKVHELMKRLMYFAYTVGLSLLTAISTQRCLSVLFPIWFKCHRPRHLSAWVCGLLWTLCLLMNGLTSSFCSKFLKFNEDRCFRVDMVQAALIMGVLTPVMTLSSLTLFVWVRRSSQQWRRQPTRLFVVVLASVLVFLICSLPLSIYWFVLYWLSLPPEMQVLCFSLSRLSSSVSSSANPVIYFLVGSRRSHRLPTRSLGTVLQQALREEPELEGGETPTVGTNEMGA
Method: as §1, §2

MRGX1 = MRGX1 (Homo sapiens, UniProt Q96LB2); experiment: cell-based
Chain of MRGX1 (Q96LB2 whole entry): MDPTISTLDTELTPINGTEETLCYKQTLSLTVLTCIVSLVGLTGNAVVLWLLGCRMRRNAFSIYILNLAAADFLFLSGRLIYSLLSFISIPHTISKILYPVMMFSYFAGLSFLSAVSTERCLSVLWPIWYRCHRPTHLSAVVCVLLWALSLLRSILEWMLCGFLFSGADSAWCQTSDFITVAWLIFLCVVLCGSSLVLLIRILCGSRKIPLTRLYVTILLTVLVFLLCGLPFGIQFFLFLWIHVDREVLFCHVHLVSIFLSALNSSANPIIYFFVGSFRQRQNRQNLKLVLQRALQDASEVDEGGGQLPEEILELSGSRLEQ
Method: as §1, §2

MRGX2 = MRGX2 (Homo sapiens, UniProt Q96LB1); experiment: cell-based
Chain of MRGX2 (Q96LB1 whole entry): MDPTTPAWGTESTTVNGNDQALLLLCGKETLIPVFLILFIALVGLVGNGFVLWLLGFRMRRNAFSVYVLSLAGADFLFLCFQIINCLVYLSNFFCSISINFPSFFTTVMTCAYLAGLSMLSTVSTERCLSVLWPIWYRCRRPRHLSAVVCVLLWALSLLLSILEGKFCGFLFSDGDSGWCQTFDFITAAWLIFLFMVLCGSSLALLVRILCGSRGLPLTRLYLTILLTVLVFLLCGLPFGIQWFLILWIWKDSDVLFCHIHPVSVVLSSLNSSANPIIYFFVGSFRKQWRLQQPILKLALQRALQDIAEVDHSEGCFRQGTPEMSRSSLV
Method: as §1, §2

NK2 [3] = biological target: NK2 (Homo sapiens, UniProt P21452); experiment: cell-based
Method: as §1, §2

NMUR1 = NMUR1 (Homo sapiens, UniProt Q9HB89); experiment: cell-based
Chain of NMUR1 (Q9HB89 whole entry): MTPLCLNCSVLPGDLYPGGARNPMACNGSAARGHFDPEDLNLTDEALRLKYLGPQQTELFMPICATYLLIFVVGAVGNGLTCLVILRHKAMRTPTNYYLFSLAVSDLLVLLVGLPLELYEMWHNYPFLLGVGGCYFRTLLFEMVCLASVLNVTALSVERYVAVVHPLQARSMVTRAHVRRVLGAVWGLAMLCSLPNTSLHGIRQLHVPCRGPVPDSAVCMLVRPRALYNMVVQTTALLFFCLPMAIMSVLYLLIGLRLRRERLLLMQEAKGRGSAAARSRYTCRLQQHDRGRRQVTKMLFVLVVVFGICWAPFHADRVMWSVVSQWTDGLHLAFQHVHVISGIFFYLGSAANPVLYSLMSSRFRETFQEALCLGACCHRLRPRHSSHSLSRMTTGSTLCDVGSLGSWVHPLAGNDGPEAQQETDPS
Method: as §1, §2

NOP = NOP (Homo sapiens, UniProt P41146); experiment: cell-based
Chain of NOP (P41146 whole entry): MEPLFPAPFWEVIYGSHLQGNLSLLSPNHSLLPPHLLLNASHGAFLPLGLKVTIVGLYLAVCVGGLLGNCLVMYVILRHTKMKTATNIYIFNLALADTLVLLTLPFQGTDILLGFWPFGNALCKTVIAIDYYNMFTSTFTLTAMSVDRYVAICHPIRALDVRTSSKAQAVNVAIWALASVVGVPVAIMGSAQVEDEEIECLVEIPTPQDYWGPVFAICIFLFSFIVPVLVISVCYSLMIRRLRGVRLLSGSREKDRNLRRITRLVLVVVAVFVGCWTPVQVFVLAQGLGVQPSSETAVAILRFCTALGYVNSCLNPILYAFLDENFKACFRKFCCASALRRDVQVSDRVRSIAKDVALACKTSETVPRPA
Method: as §1, §2

MCHR2 [4] = biological target: MCHR2 (UniProt Q969V1 1-340, limits assumed); experiment: cell-based or functional assay
Chain of MCHR2 (UniProt Q969V1 1-340, limits assumed) (Q969V1 whole entry): as the sequence (Q969V1 whole entry) above

NK1 = NK1 (UniProt P25103 1-407); experiment: cell-based or functional assay
Chain of NK1 (P25103 whole entry): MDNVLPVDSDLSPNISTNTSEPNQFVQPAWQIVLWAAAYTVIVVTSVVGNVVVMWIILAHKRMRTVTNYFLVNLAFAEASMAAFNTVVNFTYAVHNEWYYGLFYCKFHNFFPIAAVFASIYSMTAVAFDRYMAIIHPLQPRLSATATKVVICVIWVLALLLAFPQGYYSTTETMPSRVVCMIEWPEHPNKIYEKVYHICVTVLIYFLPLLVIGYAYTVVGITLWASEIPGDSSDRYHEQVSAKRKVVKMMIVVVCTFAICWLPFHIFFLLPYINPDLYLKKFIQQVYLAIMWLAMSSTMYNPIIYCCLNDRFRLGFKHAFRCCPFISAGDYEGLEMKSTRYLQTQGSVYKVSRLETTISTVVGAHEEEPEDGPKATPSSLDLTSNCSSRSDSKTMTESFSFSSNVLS

NK2 [5] = biological target: T1, NK2 (UniProt P21452 1-398); experiment: cell-based or functional assay
T1 sequence (looked up): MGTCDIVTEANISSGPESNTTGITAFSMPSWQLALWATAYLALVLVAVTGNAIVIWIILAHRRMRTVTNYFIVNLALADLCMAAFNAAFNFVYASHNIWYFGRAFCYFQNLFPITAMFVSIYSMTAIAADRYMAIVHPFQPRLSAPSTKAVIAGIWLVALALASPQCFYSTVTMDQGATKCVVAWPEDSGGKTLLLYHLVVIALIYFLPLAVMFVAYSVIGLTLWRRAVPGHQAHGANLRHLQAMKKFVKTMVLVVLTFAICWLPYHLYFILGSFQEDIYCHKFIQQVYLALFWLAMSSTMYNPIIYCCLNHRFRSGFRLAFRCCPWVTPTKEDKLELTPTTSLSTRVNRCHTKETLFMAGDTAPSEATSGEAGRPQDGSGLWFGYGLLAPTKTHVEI

NMUR2 = NMUR2 (UniProt Q9GZQ4 1-415, limits assumed); experiment: cell-based or functional assay
Chain of NMUR2 (Q9GZQ4 whole entry): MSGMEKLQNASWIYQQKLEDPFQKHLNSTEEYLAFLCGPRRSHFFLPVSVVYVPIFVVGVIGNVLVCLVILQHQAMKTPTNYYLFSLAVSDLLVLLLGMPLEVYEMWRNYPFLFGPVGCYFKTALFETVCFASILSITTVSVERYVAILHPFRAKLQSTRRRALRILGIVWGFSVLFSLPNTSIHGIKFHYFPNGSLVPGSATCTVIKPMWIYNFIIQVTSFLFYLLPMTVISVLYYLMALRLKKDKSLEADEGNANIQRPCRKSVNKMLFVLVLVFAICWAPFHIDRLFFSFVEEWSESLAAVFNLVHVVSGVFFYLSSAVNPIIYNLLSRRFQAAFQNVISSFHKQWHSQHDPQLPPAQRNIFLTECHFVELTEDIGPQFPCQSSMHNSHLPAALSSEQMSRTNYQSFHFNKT

MC2 [6] = biological target: MC2 (UniProt Q01718 1-297); experiment: cell-based or functional assay
Chain of MC2 (UniProt Q01718 1-297) (Q01718 whole entry): as the sequence (Q01718 whole entry) above

[7] = read-out: percent activation compared to standards, DT-110 @ 1.25 mM, Avg.
[8] = read-out: percent activation compared to standards, DT-110 @ 1.25 mM, n1
[9] = read-out: percent activation compared to standards, DT-110 @ 1.25 mM, n2
[10] = read-out: percent activation compared to standards, DT-110 @ 12.5 mM, Avg.
[11] = read-out: percent activation compared to standards, DT-110 @ 12.5 mM, n1
[12] = read-out: percent activation compared to standards, DT-110 @ 12.5 mM, n2

Chain of GPCR109a (Q8TDS4 whole entry): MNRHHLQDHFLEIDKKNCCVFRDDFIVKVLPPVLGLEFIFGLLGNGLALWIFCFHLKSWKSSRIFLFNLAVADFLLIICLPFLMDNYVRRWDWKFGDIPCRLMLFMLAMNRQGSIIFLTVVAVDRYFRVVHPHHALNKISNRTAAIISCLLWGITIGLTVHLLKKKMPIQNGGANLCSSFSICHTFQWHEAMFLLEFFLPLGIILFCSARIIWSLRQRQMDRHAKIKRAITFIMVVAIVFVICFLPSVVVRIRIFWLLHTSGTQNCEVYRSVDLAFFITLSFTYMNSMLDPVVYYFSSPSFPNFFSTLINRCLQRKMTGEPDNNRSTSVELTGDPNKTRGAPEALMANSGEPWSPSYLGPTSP

CC(C)C[C@@H](NC(=O)CNC(=O)CN)C(=O)O
activation at 1250 µM (GPCR109a; [7]): -8.1% | activation at 1250 µM (GPCR109a; [8]): -8.1% | activation at 1250 µM (GPCR109a; [9]): -8% | activation at 12500 µM (GPCR109a; [10]): 54.3% | activation at 12500 µM (GPCR109a; [11]): 52.9% | activation at 12500 µM (GPCR109a; [12]): 55.7% | activation at 1250 µM (GPCR40; [7]): -9.5% | activation at 1250 µM (GPCR40; [8]): -9.3% | activation at 1250 µM (GPCR40; [9]): -9.6% | activation at 12500 µM (GPCR40; [10]): 50.2% | activation at 12500 µM (GPCR40; [11]): 55.9% | activation at 12500 µM (GPCR40; [12]): 44.5% | activation at 1250 µM (MC2 [1]; [7]): -0.7% | activation at 1250 µM (MC2 [1]; [8]): 0.6% | activation at 1250 µM (MC2 [1]; [9]): -2% | activation at 12500 µM (MC2 [1]; [10]): -1% | activation at 12500 µM (MC2 [1]; [11]): -1% | activation at 12500 µM (MC2 [1]; [12]): -0.9% | activation at 1250 µM (MCHR1; [7]): 0.4% | activation at 1250 µM (MCHR1; [8]): 0.2% | activation at 1250 µM (MCHR1; [9]): 0.7% | activation at 12500 µM (MCHR1; [10]): -0.1% | activation at 12500 µM (MCHR1; [11]): -0.5% | activation at 12500 µM (MCHR1; [12]): 0.3% | activation at 1250 µM (MCHR2 [2]; [7]): 0.5% | activation at 1250 µM (MCHR2 [2]; [8]): 0.1% | activation at 1250 µM (MCHR2 [2]; [9]): 0.8% | activation at 12500 µM (MCHR2 [2]; [10]): -0.9% | activation at 12500 µM (MCHR2 [2]; [11]): -0.8% | activation at 12500 µM (MCHR2 [2]; [12]): -0.9% | activation at 1250 µM (MRGD; [7]): 69.2% | activation at 1250 µM (MRGD; [8]): 76.5% | activation at 1250 µM (MRGD; [9]): 62% | activation at 12500 µM (MRGD; [10]): 64.5% | activation at 12500 µM (MRGD; [11]): 60.7% | activation at 12500 µM (MRGD; [12]): 68.3% | activation at 1250 µM (MRGX1; [7]): -1.9% | activation at 1250 µM (MRGX1; [8]): -1.3% | activation at 1250 µM (MRGX1; [9]): -2.5% | activation at 12500 µM (MRGX1; [10]): -6.6% | activation at 12500 µM (MRGX1; [11]): -6.7% | activation at 12500 µM (MRGX1; [12]): -6.6% | activation at 1250 µM (MRGX2; [7]): -0.2% | activation at 1250 µM (MRGX2; [8]): 0% | activation at 1250 µM (MRGX2; [9]): -0.4% | activation at 12500 µM (MRGX2; [10]): 0% | activation at 12500 µM (MRGX2; [11]): 0.4% | activation at 12500 µM (MRGX2; [12]): -0.4% | activation at 1250 µM (NK2 [3]; [7]): -9.5% | activation at 1250 µM (NK2 [3]; [8]): -9.4% | activation at 1250 µM (NK2 [3]; [9]): -9.6% | activation at 12500 µM (NK2 [3]; [10]): -9.6% | activation at 12500 µM (NK2 [3]; [11]): -9.5% | activation at 12500 µM (NK2 [3]; [12]): -9.7% | activation at 1250 µM (NMUR1; [7]): 0.5% | activation at 1250 µM (NMUR1; [8]): 1.3% | activation at 1250 µM (NMUR1; [9]): -0.4% | activation at 12500 µM (NMUR1; [10]): -0.1% | activation at 12500 µM (NMUR1; [11]): -0.7% | activation at 12500 µM (NMUR1; [12]): 0.5% | activation at 1250 µM (NOP; [7]): -0.1% | activation at 1250 µM (NOP; [8]): -7.8% | activation at 1250 µM (NOP; [9]): 7.6% | activation at 12500 µM (NOP; [10]): -2.3% | activation at 12500 µM (NOP; [11]): 3.4% | activation at 12500 µM (NOP; [12]): -8%

Gly-Gly-[dL] [DT-110, tripeptide glycine-glycine-D-leucine (GGdL)]
percent activation (calcium flux, GPCRProfiler), DT-110 @ 1.25 mM, Avg. (MCHR2 [4]): 0.5% | percent activation (calcium flux, GPCRProfiler), DT-110 @ 1.25 mM, n1 (MCHR2 [4]): 0.1% | percent activation (calcium flux, GPCRProfiler), DT-110 @ 1.25 mM, n2 (MCHR2 [4]): 0.8% | percent activation (calcium flux, GPCRProfiler), DT-110 @ 12.5 mM, Avg. (MCHR2 [4]): -0.9% | percent activation (calcium flux, GPCRProfiler), DT-110 @ 12.5 mM, n1 (MCHR2 [4]): -0.8% | percent activation (calcium flux, GPCRProfiler), DT-110 @ 12.5 mM, n2 (MCHR2 [4]): -0.9% | percent activation (calcium flux, GPCRProfiler), DT-110 @ 1.25 mM, Avg. (NK1): -0.9% | percent activation (calcium flux, GPCRProfiler), DT-110 @ 1.25 mM, n1 (NK1): -1% | percent activation (calcium flux, GPCRProfiler), DT-110 @ 1.25 mM, n2 (NK1): -0.9% | percent activation (calcium flux, GPCRProfiler), DT-110 @ 12.5 mM, Avg. (NK1): -1.1% | percent activation (calcium flux, GPCRProfiler), DT-110 @ 12.5 mM, n1 (NK1): -1% | percent activation (calcium flux, GPCRProfiler), DT-110 @ 12.5 mM, n2 (NK1): -1.1% | percent activation (calcium flux, GPCRProfiler), DT-110 @ 1.25 mM, Avg. (NK2 [5]): -9.5% | percent activation (calcium flux, GPCRProfiler), DT-110 @ 1.25 mM, n1 (NK2 [5]): -9.4% | percent activation (calcium flux, GPCRProfiler), DT-110 @ 1.25 mM, n2 (NK2 [5]): -9.6% | percent activation (calcium flux, GPCRProfiler), DT-110 @ 12.5 mM, Avg. (NK2 [5]): -9.6% | percent activation (calcium flux, GPCRProfiler), DT-110 @ 12.5 mM, n1 (NK2 [5]): -9.5% | percent activation (calcium flux, GPCRProfiler), DT-110 @ 12.5 mM, n2 (NK2 [5]): -9.7% | percent activation (calcium flux, GPCRProfiler), DT-110 @ 1.25 mM, Avg. (NMUR2): 2.4% | percent activation (calcium flux, GPCRProfiler), DT-110 @ 1.25 mM, n1 (NMUR2): 0.9% | percent activation (calcium flux, GPCRProfiler), DT-110 @ 1.25 mM, n2 (NMUR2): 3.9% | percent activation (calcium flux, GPCRProfiler), DT-110 @ 12.5 mM, Avg. (NMUR2): -0.9% | percent activation (calcium flux, GPCRProfiler), DT-110 @ 12.5 mM, n1 (NMUR2): 0.4% | percent activation (calcium flux, GPCRProfiler), DT-110 @ 12.5 mM, n2 (NMUR2): -2.2% | percent activation (calcium flux, GPCRProfiler), DT-110 @ 1.25 mM, Avg. (MC2 [6]): -0.7% | percent activation (calcium flux, GPCRProfiler), DT-110 @ 1.25 mM, n1 (MC2 [6]): 0.6% | percent activation (calcium flux, GPCRProfiler), DT-110 @ 1.25 mM, n2 (MC2 [6]): -2% | percent activation (calcium flux, GPCRProfiler), DT-110 @ 12.5 mM, Avg. (MC2 [6]): -1% | percent activation (calcium flux, GPCRProfiler), DT-110 @ 12.5 mM, n1 (MC2 [6]): -1% | percent activation (calcium flux, GPCRProfiler), DT-110 @ 12.5 mM, n2 (MC2 [6]): -0.9%
